The results in this text go back to patent US7923473B2, “Aromatic compounds and their use in medical applications” (Revotar Biopharmaceuticals AG, priority 2005, dated 2011).

What is called IC50 is the concentration needed to halve the response being measured. Read a low IC50 as inhibition by little substance.

The target in experiment [1] is T1, human E-Selectin-IgG-chimera (Homo sapiens, UniProt P16581). The experiment in a line: Sialyl Lewis^x Tyrosine Sulfate Assay (sLe^x TSA), E-selectin. Conditions: inhibition of binding of selectin chimera to sLe^x-tyrosine sulfate polyacrylamide ligand complex. The procedure: (§1) Compounds of the present invention are assayed on a molecular level for their ability to inhibit the binding of P-, L-, or E-selectin chimeric molecules to sLe^x and tyrosinesulfate residues linked to a polymeric matrix as a PSGL-1 substitute. IC50-values are determined.
(§2) Microtiter plates are coated overnight in carbonate buffer pH9.6 with goat anti human Fc mAB (10 μg/ml). After washing in assay buffer (25 mM 4-(2-hydroxyethyl)-1-piperazineethanesulfonic acid (HEPES), 150 mM NaCl, 1 mM CaCl2 pH7.4) and blocking (3% bovine serum albumin (BSA) in assay buffer) plates are incubated for 2 h at 37° C. with human P-Selectin-IgG-chimera (0.61 nM respectively 150 ng/mL) or human L-Selectin-IgG-chimera (0.61 nM respectively 89 ng/mL) or human E-Selectin-IgG-chimera (0.61 nM respectively 131 ng/mL). 5 μl of sLe^x-tyrosine sulfate polyacrylamide (1 mg/ml) carrying 15% sLe^x, 10% Tyrosine-sulfate and 5% biotin is complexed with 20 μl Streptavidin-Peroxidase solution (1 mg/ml) and 25 μl assay buffer without CaCl2. For use in the assay, the ligand complex is diluted 1:10000 in assay buffer and further diluted 1:1 with varying amounts of compounds in assay buffer incl. 2% DMSO. This mixture is added to the wells precoated with E- or P-selectin. After incubation for 2 h at 37° C., wells are washed for six times with in assay buffer incl. 0.005% Polyoxyethylenesorbitan monolaurate (TWEEN 20), developed for 10-15 min with 20 μl 3,3′,5,5′-tetramethylbenzidine (TMB)/H202 substrate solution and stopped with 20 μl 1 M H2SO4. Bound sLe^x-Tyrosine sulfate ligand complex is determined by measuring optical density at 450 nm vs. 620 nm in a Fusion alpha-FP reader (sold from Packard Bioscience, Dreieich, Germany).

In experiment [2] the target is human L-Selectin-IgG-chimera (Homo sapiens, UniProt P14151). The experiment in a line: Sialyl Lewis^x Tyrosine Sulfate Assay (sLe^x TSA), L-selectin. Conditions: inhibition of binding of selectin chimera to sLe^x-tyrosine sulfate polyacrylamide ligand complex. The method, then: as §1, §2
Experiment [3] has as its target T2, human P-Selectin-IgG-chimera (Homo sapiens, UniProt P16109). The experiment in a line: Sialyl Lewis^x Tyrosine Sulfate Assay (sLe^x TSA), P-selectin. Conditions: inhibition of binding of selectin chimera to sLe^x-tyrosine sulfate polyacrylamide ligand complex. The procedure: as §1, §2
The target of experiment [4] is T2, human P-Selectin-IgG-chimera. Kind of experiment: Flow chamber assay / cell adhesion and rolling under flow conditions, P-selectin. Conditions: 125 μM compound; HL-60 cells; flow shear 1 dyne/cm^2; attached cells after 5 minutes continuous flow. Type of experiment: cell-based. The method, then:
(§3) To assess the capability of compounds to inhibit cell binding under dynamic conditions resembling the flow in a blood vessel, flow chamber assays addressing/testing binding of HL-60 cells/various cell lines to P-selectin, L-selectin and E-selectin chimeric molecules are performed.
(§4) Cell attachment under flow conditions are determined using a parallel flow chamber system. A 35 mm polystyrene culture dish is coated for 1 hour at room temperature with coating buffer (50 mM tris-(hydroxymethyl)aminomethane buffer (Tris), 150 mM NaCl, 2 mM CaCl2; pH 7.4) containing human E- or P-selectin-IgG chimera at concentrations of 2.5 μg/ml or 10 μg/ml, respectively. After removal of the coating solution non specific binding sites are blocked for an additional hour with 1% BSA in coating buffer at room temperature. After washing with assay buffer (“Roswell Park Memorial Institute 1640” (RPMI 1640)+10 mM HEPES) the dish is fitted into a parallel plate laminar flow chamber (sold from Glycotech, Rockville, Md.) and mounted on an inverted phase-contrast microscope (sold from Olympus, Hamburg, Germany) equipped with a CCD camera (JVC) that is connected to a PC. Employing a peristaltic pump (sold from Ismatec, Wertheim-Mondfeld, Germany) the re-circulating system is equilibrated with assay buffer containing 125 μM compound or vehicle control (DMSO). Cells (1 million/ml) are added to the chamber and allowed to distribute for 2 minutes at a high flow rate. The flow rate is then decreased resulting in a calculated flow shear of 1 dyne/cm^2. Video sequences of 10 low power fields are digitally recorded after 5 minutes continuous flow. The percentage of modulation is calculated from the mean number of cells per field that attached to the coated dish surface in the presence versus absence of compound of […].

The target of experiment [5] is T1, human E-Selectin-IgG-chimera. Kind of experiment: Flow chamber assay / cell adhesion and rolling under flow conditions, E-selectin. It is filed as cell-based. Conditions: 125 μM compound; HL-60 cells; flow shear 1 dyne/cm^2; attached cells after 5 minutes continuous flow. The method, then: as §3, §4

A value given as a limit tells only on which side of the number the result lay.

T1 sequence (P16581 with tags, fused parts or gaps limits assumed): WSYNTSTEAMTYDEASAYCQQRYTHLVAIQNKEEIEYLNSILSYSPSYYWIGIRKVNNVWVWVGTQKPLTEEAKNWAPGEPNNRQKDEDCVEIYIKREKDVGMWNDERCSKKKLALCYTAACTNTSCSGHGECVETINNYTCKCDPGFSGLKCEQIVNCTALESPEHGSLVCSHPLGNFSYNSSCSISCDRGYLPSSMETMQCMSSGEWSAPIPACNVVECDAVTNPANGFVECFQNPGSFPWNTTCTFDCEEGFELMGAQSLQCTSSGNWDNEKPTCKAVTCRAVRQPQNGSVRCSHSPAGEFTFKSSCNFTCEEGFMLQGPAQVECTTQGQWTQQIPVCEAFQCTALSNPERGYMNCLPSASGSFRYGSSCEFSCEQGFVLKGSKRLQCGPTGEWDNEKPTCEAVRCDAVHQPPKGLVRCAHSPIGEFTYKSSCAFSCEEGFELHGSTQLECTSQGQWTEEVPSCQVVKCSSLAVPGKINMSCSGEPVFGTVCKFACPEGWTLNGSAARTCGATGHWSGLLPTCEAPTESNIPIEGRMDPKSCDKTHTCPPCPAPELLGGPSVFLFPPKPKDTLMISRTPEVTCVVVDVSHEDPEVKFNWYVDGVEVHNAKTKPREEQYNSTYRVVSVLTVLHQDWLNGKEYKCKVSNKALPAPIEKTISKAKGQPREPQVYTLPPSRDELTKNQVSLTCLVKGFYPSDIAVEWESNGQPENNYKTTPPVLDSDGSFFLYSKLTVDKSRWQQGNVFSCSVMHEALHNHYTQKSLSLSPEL
human L-Selectin-IgG-chimera, sequence (P14151 with tags, fused parts or gaps limits assumed): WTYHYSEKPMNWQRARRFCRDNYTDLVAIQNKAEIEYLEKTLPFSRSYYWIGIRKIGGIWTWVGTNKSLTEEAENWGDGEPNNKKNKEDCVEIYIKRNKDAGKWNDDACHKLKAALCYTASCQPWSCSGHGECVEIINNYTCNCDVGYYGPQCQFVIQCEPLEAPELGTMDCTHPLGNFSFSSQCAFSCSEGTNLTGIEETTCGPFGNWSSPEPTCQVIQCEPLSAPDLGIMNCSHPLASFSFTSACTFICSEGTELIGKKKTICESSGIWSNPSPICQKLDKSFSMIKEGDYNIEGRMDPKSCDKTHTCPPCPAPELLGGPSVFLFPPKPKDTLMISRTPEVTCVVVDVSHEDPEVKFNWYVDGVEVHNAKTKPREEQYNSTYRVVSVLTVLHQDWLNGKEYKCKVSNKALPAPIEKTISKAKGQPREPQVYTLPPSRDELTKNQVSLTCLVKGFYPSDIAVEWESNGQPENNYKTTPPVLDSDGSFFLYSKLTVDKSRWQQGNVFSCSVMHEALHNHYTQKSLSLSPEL
T2 sequence (P16109 with tags, fused parts or gaps limits assumed): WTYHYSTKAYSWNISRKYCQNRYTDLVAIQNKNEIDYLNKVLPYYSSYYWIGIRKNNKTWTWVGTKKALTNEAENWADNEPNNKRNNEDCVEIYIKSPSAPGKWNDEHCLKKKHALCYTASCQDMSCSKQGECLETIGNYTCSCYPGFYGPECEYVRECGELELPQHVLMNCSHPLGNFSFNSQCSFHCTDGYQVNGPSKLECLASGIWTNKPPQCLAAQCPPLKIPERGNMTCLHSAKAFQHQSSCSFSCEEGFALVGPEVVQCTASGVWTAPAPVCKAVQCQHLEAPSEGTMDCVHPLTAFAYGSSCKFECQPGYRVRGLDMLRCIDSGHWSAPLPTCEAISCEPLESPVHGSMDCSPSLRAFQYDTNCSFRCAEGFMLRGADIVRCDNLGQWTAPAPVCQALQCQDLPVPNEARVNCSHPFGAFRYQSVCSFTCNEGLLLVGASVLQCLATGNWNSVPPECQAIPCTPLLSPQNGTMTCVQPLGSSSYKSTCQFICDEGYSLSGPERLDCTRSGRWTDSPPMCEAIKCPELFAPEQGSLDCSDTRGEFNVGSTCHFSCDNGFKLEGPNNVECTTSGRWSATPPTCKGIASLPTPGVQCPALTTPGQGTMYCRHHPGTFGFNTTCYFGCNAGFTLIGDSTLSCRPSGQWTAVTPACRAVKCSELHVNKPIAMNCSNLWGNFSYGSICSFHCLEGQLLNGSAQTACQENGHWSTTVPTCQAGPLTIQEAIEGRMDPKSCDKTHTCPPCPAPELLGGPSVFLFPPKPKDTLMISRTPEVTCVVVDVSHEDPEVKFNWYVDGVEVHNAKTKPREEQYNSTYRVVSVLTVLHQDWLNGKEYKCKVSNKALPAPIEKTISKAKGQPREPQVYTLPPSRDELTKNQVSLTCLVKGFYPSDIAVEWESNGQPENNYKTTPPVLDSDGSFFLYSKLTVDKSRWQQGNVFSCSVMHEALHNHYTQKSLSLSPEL

As to `COc1ccc(-c2cccc(C(=O)Nc3ccccc3-c3ccc(C(=O)O)s3)c2)c(OC)c1OC` [Compound 64], the IC50 in experiment [1] was over 500 µM; in experiment [2], 383 µM; in experiment [3], 107 µM. In experiment [4], the “P-Selectin normalized ratio of %-inhibition of compound divided by %-inhibition of bimosiamose” value is on record as 1.01 Ratio. The “E-Selectin normalized ratio of %-inhibition of compound divided by %-inhibition of bimosiamose” value in experiment [5] is on record as 1.27 Ratio.
The like results for `COc1ccc(-c2cc(C(=O)Nc3ccccc3-c3ccc(CC(=O)O)s3)cc([N+](=O)[O-])c2)c(OC)c1OC` [Compound 63] were, in that order, over 500 µM, 76.1 µM, 28.5 µM, 1.06 Ratio and 1.46 Ratio.
In the case of `COc1ccc(-c2cccc(C(=O)Nc3ccccc3-c3ccc(Cc4nnn[nH]4)s3)c2)c(OC)c1OC` [Compound 87, 2′,3′,4′-Trimethoxy-biphenyl-3-carboxylic acid {2-[5-(1H-tetrazol-5-ylmethyl)-thiophen-2-yl]-phenyl}-amide], the IC50 in experiment [2] is 59.5 µM; in experiment [3] it was 32.6 µM. Also, in experiment [4], the “P-Selectin normalized ratio of %-inhibition of compound divided by %-inhibition of bimosiamose” value is 2.62 Ratio. The “E-Selectin normalized ratio of %-inhibition of compound divided by %-inhibition of bimosiamose” value in experiment [5] was found to be 1.23 Ratio.
Consider `COc1cc(CCC(=O)Nc2cccc(N)c2)cc(OC)c1OC` [Compound 60], for which the figures for the IC50 in experiment [1], in experiment [2] and in experiment [3] were 18.2 µM, 12.8 µM and 15 µM, respectively.
On to `O=C(O)Cc1cccc(-c2cc(CCCCCCc3ccc(O[C@H]4O[C@H](CO)[C@@H](O)[C@H](O)[C@@H]4O)c(-c4cccc(CC(=O)O)c4)c3)ccc2O[C@H]2O[C@H](CO)[C@@H](O)[C@H](O)[C@@H]2O)c1` [Bimosiamose, bimosiamose, reference compound], for which the IC50 in experiment [2] is over 500 µM.
For `CCOC(=O)c1cc(-c2ccc(NC(=O)Cc3ccc(OC)c(OC)c3OC)cc2)oc1C` [Compound 62], the IC50 in experiment [1] was found to be 74.7 µM; in experiment [2] it was 45.3 µM; in experiment [3], 46.4 µM.
As to `COc1ccc(-c2cccc(C(=O)Nc3ccccc3-c3ccc(CC(=O)O)s3)c2)c(OC)c1OC` [Compound 61], the IC50 in experiment [1] is over 500 µM; in experiment [2], 385 µM; in experiment [3] it was 186 µM.
